Literature values as cited in patent publication US9271991B2, “Trimegestone (TMG) for treatment of preterm birth” (Dignity Health, priority 2010, dated 2016).

Target: T1, progesterone receptor (PR) (Homo sapiens, UniProt P06401)
T1 sequence (P06401 1-933): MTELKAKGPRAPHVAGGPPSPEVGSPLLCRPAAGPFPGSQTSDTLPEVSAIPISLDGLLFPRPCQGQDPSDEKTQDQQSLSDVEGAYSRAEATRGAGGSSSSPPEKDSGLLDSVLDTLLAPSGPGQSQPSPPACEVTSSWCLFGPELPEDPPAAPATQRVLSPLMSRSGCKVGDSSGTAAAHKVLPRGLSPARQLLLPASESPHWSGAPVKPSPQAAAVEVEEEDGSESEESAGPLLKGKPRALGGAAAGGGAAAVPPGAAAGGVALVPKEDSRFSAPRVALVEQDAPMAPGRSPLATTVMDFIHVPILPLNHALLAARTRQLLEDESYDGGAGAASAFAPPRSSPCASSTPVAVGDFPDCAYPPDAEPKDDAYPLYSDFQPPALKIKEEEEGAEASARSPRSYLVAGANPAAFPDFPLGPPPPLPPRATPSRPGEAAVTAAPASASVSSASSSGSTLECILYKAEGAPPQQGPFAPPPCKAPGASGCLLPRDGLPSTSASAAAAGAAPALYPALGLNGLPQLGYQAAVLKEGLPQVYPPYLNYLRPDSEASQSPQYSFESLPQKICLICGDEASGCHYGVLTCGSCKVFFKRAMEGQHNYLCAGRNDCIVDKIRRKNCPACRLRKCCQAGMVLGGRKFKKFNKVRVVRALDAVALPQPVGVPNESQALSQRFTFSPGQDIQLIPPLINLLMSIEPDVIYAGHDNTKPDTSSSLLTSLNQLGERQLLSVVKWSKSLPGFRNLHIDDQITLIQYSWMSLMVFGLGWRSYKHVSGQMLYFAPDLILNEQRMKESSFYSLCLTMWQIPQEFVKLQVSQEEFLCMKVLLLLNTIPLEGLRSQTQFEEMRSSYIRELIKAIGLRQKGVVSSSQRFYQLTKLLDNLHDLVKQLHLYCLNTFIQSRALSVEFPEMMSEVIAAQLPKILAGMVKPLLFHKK
Conditions: cited from earlier work

SMILES: C[C@H](O)C(=O)[C@@]1(C)CC[C@H]2[C@@H]3CCC4=CC(=O)CCC4=C3CC[C@@]21C [TMG, trimegestone]
- relative binding affinity (RBA) for TMG-PR interactions: 588
- affinity for progesterone receptor (PR), higher than P4 (relative to P4): 6 fold
- potency, higher than P4 (relative to P4): approximately 6 times
- affinity for the human progesterone receptor, greater than progesterone (P4) (relative to P4, human progesterone receptor): 6 times
